What all share (format): cell-based
One assay concerns HCT-116 cells. The assay can be described thus: Cell growth, CellTiter-Glo Luminescent Cell Viability Assay, HCT-116. To be noted: Homo sapiens, 72 h incubation, read-out: IC50 HCT116. An outline of the steps: (§1)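 K562, A549 and HCT-116 cells in exponential growth exposed to inhibitors at varying concentrations for 72 h. Viability read as ATP luminescence (CellTiter-Glo, 10 min at RT after lysis); IC50 from dose-response, reported as ranges.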
A general note: Cellular ATP, detected with luciferase, serves as a proxy for viable cell number.

The subject of the next assay is K562 cells. Description: Cell growth, CellTiter-Glo Luminescent Cell Viability Assay, K562. The conditions noted are these: Homo sapiens, 72 h incubation. An outline of the steps: as §1
The subject of another assay is A549 cells. The assay can be described thus: Cell growth, CellTiter-Glo Luminescent Cell Viability Assay, A549. The conditions noted are these: Homo sapiens, 72 h incubation. An outline of the steps: as §1

Broadly, the IC50 is the point on the concentration scale where inhibition reaches its midpoint.

Where a name gives a salt, the structure may show the parent alone.

As to `Cc1cccc(C)c1N1CCN(C(=O)/C=C/c2cccc(/C=C/C(=O)NO)n2)CC1` [Example 31, (E)-3-(6-{(E)-3-[4-(2,6-Dimethyl-phenyl)-piperazin-1-yl]-3-oxo-propenyl}-pyridin-2-yl)-N-hydroxy-acrylamide hydrochloride], the values for the IC50 with HCT-116 cells, in the assay on K562 cells and in the assay with A549 cells were 1000 to 3000 nM, 1000 to 3000 nM and not below 3000 nM, respectively.
As for `O=C(/C=C/c1cccc(/C=C/C(=O)N2CCC3(CC2)C(=O)NCN3c2ccccc2)n1)NO` [Example 32, (E)-N-Hydroxy-3-{6-[(E)-3-oxo-3-(4-oxo-1-phenyl-1,3,8-triaza-spiro[4.5]dec-8-yl)-propenyl]-pyridin-2-yl}-acrylamide hydrochloride], the IC50 with HCT-116 cells, in the assay with K562 cells and with A549 cells was not below 3000 nM each time.
As to `COc1ccc(N2CCN(C(=O)/C=C/c3cccc(/C=C/C(=O)NO)n3)CC2)cc1` [Example 34, (E)-N-Hydroxy-3-(6-{(E)-3-[4-(4-methoxy-phenyl)-piperazin-1-yl]-3-oxo-propenyl}-pyridin-2-yl)-acrylamide hydrochloride], the results for the IC50 in the assay on HCT-116 cells, in the assay with K562 cells and with A549 cells were not above 1000 nM, 1000 to 3000 nM and 1000 to 3000 nM, respectively.
As to `O=C(/C=C/c1cccc(/C=C/C(=O)N2CCN(c3ccc(C(F)(F)F)cc3)CC2)n1)NO` [Example 35, (E)-N-Hydroxy-3-(6-{(E)-3-oxo-3-[4-(4-trifluoromethyl-phenyl)-piperazin-1-yl]-propenyl}-pyridin-2-yl)-acrylamide hydrochloride], the IC50 is not above 1000 nM in the assay with HCT-116 cells, 1000 to 3000 nM in the assay on K562 cells and not above 1000 nM with A549 cells.
As for `N#Cc1ccc(N2CCN(C(=O)/C=C/c3cccc(/C=C/C(=O)NO)n3)CC2)cc1` [Example 36, (E)-3-(6-{(E)-3-[4-(4-Cyano-phenyl)-piperazin-1-yl]-3-oxo-propenyl}-pyridin-2-yl)-N-hydroxy-acrylamide hydrochloride], the IC50 with HCT-116 cells, with K562 cells and with A549 cells was not below 3000 nM in each case.
`O=C(/C=C/c1cccc(/C=C/C(=O)N2CCN(c3ccc(F)cc3)CC2)n1)NO` [Example 37, (E)-3-(6-{(E)-3-[4-(4-Fluoro-phenyl)-piperazin-1-yl]-3-oxo-propenyl}-pyridin-2-yl)-N-hydroxy-acrylamide hydrochloride]: the IC50 in the assay on HCT-116 cells is not above 1000 nM; with K562 cells, 1000 to 3000 nM; in the assay with A549 cells it was 1000 to 3000 nM.
For the compound `O=C(/C=C/c1cccc(/C=C/C(=O)N2CCN(c3ccc(Br)cc3)CC2)n1)NO` [Example 38, (E)-3-(6-{(E)-3-[4-(4-Bromo-phenyl)-piperazin-1-yl]-3-oxo-propenyl}-pyridin-2-yl)-N-hydroxy-acrylamide hydrochloride], the IC50 with HCT-116 cells, in the assay on K562 cells and in the assay with A549 cells was not above 1000 nM each time.
For `O=C(/C=C/c1cccc(/C=C/C(=O)N2CCN(c3ccc(OCc4ccccc4)cc3)CC2)n1)NO` [Example 39, (E)-3-(6-{(E)-3-[4-(4-Benzyloxy-phenyl)-piperazin-1-yl]-3-oxo-propenyl}-pyridin-2-yl)-N-hydroxy-acrylamide hydrochloride], the IC50 was 1000 to 3000 nM in the assay with HCT-116 cells, 1000 to 3000 nM in the assay with K562 cells and not below 3000 nM with A549 cells.
Take `O=C(/C=C/c1cccc(/C=C/C(=O)N2CCN(c3ccncc3)CC2)n1)NO` [Example 40, (E)-N-Hydroxy-3-{6-[(E)-3-oxo-3-(4-pyridin-4-yl-piperazin-1-yl)-propenyl]-pyridin-2-yl}-acrylamide hydrochloride]: the IC50 in the assay on HCT-116 cells, in the assay on K562 cells and in the assay on A549 cells was not below 3000 nM throughout.
Turning to `O=C(/C=C/c1cccc(/C=C/C(=O)N2C[C@@H]3C[C@H]2CN3c2ccc(Cl)cc2)n1)NO` [Example 41, (E)-3-(6-{(E)-3-[5-(4-Chloro-phenyl)-(1S,4S)-2,5-diaza-bicyclo[2.2.1]hept-2-yl]-3-oxo-propenyl}-pyridin-2-yl)-N-hydroxy-acrylamide trifluoroacetate], the IC50 is 1000 to 3000 nM in the assay on HCT-116 cells, 1000 to 3000 nM with K562 cells and not below 3000 nM in the assay on A549 cells.
Turning to `O=C(/C=C/c1cccc(/C=C/C(=O)N2CCc3[nH]c4ccccc4c3C2)n1)NO` [Example 45, (E)-N-Hydroxy-3-{6-[(E)-3-oxo-3-(1,3,4,5-tetrahydro-pyrido[4,3-b]indol-2-yl)-propenyl]-pyridin-2-yl}-acrylamide hydrochloride], the values for the IC50 in the assay on HCT-116 cells, in the assay on K562 cells and in the assay on A549 cells were 1000 to 3000 nM, 1000 to 3000 nM and not below 3000 nM, respectively.
Consider `CC(C)c1ccc(N2CCN(C(=O)/C=C/c3cccc(/C=C/C(=O)NO)n3)CC2)cc1` [Example 49, (E)-N-Hydroxy-3-(6-{(E)-3-[4-(4-isopropyl-phenyl)-piperazin-1-yl]-3-oxo-propenyl}-pyridin-2-yl)-acrylamide hydrochloride], for which the results for the IC50 in the assay with HCT-116 cells, in the assay on K562 cells and with A549 cells were not above 1000 nM, 1000 to 3000 nM and 1000 to 3000 nM, respectively.
Take `CC(C)(C)c1ccc(N2CCN(C(=O)/C=C/c3cccc(/C=C/C(=O)NO)n3)CC2)cc1` [Example 50, (E)-3-(6-{(E)-3-[4-(4-tert-Butyl-phenyl)-piperazin-1-yl]-3-oxo-propenyl}-pyridin-2-yl)-N-hydroxy-acrylamide hydrochloride]: the IC50 is 1000 to 3000 nM with HCT-116 cells, 1000 to 3000 nM in the assay with K562 cells and not below 3000 nM with A549 cells.
On to `CS(=O)(=O)c1ccc(N2CCN(C(=O)/C=C/c3cccc(/C=C/C(=O)NO)n3)CC2)cc1` [Example 51, (E)-N-Hydroxy-3-(6-{(E)-3-[4-(4-methanesulfonyl-phenyl)-piperazin-1-yl]-3-oxo-propenyl}-pyridin-2-yl)-acrylamide hydrochloride], for which the IC50 in the assay on HCT-116 cells, with K562 cells and with A549 cells was not below 3000 nM throughout.
For the compound `O=C(/C=C/c1cccc(/C=C/C(=O)N2CCCc3ccccc32)n1)NO` [Example 55, (E)-3-{6-[(E)-3-(3,4-Dihydro-2H-quinolin-1-yl)-3-oxo-propenyl]-pyridin-2-yl}-N-hydroxy-acrylamide trifluoroacetate], the IC50 with HCT-116 cells, with K562 cells and with A549 cells was not above 1000 nM throughout.
With `O=C(/C=C/c1cccc(/C=C/C(=O)N2CCc3c([nH]c4ccccc34)C2)n1)NO` [Example 56, (E)-N-Hydroxy-3-{6-[(E)-3-oxo-3-(1,3,4,9-tetrahydro-beta-carbolin-2-yl)-propenyl]-pyridin-2-yl}-acrylamide hydrochloride], the IC50 is 1000 to 3000 nM in the assay on HCT-116 cells, 1000 to 3000 nM in the assay on K562 cells and not below 3000 nM in the assay with A549 cells.
In the case of `O=C(/C=C/c1cccc(/C=C/C(=O)N2CCC(c3nc4ccccc4o3)CC2)n1)NO` [Example 57, (E)-3-{6-[(E)-3-(4-Benzooxazol-2-yl-piperidin-1-yl)-3-oxo-propenyl]-pyridin-2-yl}-N-hydroxy-acrylamide hydrochloride], the IC50 is 1000 to 3000 nM with HCT-116 cells, not below 3000 nM with K562 cells and not below 3000 nM with A549 cells.
Regarding `O=C(/C=C/c1cccc(/C=C/C(=O)N2CCc3ccccc3C2)n1)NO` [Example 58, (E)-3-{6-[(E)-3-(3,4-Dihydro-1H-isoquinolin-2-yl)-3-oxo-propenyl]-pyridin-2-yl}-N-hydroxy-acrylamide hydrochloride], the IC50 in the assay on HCT-116 cells is not above 1000 nM; with K562 cells, not above 1000 nM; with A549 cells, 1000 to 3000 nM.
Consider `O=C(/C=C/c1cccc(/C=C/C(=O)N2CCC(c3nc4ccccc4[nH]3)CC2)n1)NO` [Example 59, (E)-3-(6-{(E)-3-[4-(1H-Benzoimidazol-2-yl)-piperidin-1-yl]-3-oxo-propenyl}-pyridin-2-yl)-N-hydroxy-acrylamide hydrochloride], for which the IC50 in the assay on HCT-116 cells, in the assay on K562 cells and in the assay on A549 cells was not below 3000 nM in each case.
With `O=C(/C=C/c1cccc(/C=C/C(=O)N2CCC3(C=Cc4ccccc43)CC2)n1)NO` [Example 60, (E)-3-(6-{(E)-3-[Spiro[indene-1,4′-piperidine-1′-yl]-3-oxo-propenyl}-pyridin-2-yl)-N-hydroxy-acrylamide hydrochloride], the values for the IC50 in the assay with HCT-116 cells, with K562 cells and in the assay on A549 cells were 1000 to 3000 nM, not above 1000 nM and not below 3000 nM, respectively.
The matching figures for `O=C(/C=C/c1cccc(/C=C/C(=O)N2CCC3(CC2)OCc2ccccc23)n1)NO` [Example 61, (E)-3-(6-{(E)-3-[Spiro[2-benzofuran-1,4′-piperidine-1′-yl]-3-oxo-propenyl}-pyridin-2-yl)-N-hydroxy-acrylamide hydrochloride]: not above 1000 nM, not above 1000 nM and 1000 to 3000 nM.
As for `O=C(/C=C/c1cccc(/C=C/C(=O)N2CCC(n3c(-c4ccccc4)nc4ccccc43)CC2)n1)NO` [Example 62, (E)-N-Hydroxy-3-(6-{(E)-3-oxo-3-[4-(2-phenyl-benzoimidazol-1-yl)-piperidin-1-yl]-propenyl}-pyridin-2-yl)-acrylamide hydrochloride], the IC50 with HCT-116 cells, in the assay with K562 cells and with A549 cells was not below 3000 nM each time.
Regarding `O=C(/C=C/c1cccc(/C=C/C(=O)N2CCC[C@@H](c3ccccc3)C2)n1)NO` [Example 73, (E)-N-Hydroxy-3-{6-[(E)-3-oxo-3-((S)-3-phenyl-piperidin-1-yl)-propenyl]-pyridin-2-yl}-acrylamide hydrochloride], the IC50 in the assay with HCT-116 cells, in the assay on K562 cells and with A549 cells was not above 1000 nM each time.
In the case of `O=C(/C=C/c1cccc(/C=C/C(=O)N2CCCC(c3ccccc3)C2)n1)NO` (stereo not drawn) [Example 74, (E)-N-Hydroxy-3-{6-[(E)-3-oxo-3-((12)-3-phenyl-piperidin-1-yl)-propenyl]-pyridin-2-yl}-acrylamide hydrochloride], the IC50 in the assay on HCT-116 cells, in the assay on K562 cells and in the assay on A549 cells was not above 1000 nM throughout.

Source of the values: patent publication US20110105474A1, “HETEROCYCLIC DERIVATIVES AS HDAC INHIBITORS” (DAC S.r.l., priority 2008, published 2011).
